{
  "source": "paper PMC4268911",
  "about": "(International Journal of Nanomedicine, 2014)",
  "key": {"MDAMB 231 cells": {"system": "MDAMB 231 cells", "experiment": "In vitro cytotoxicity of conjugate, MTS-based assay", "type": "cell-based, human", "conditions": "MDAMB 231, 0–200 μg mL−1 polymer, 24 hours"}, "MCF-7 cells": {"system": "MCF-7 cells", "experiment": "In vitro cytotoxicity of conjugate, MTS-based assay", "type": "cell-based, human", "conditions": "MCF-7, 0–200 μg mL−1 polymer, 24 hours"}},
  "data": [
    {"substance": "Low-molecular-weight heparin [LMWH]", "values": [
      {"measurement": "cytotoxicity (cell viability)", "setting": "MDAMB 231 cells", "value": "no severe in vitro cytotoxicity"},
      {"measurement": "cytotoxicity (cell viability)", "setting": "MCF-7 cells", "value": "no severe in vitro cytotoxicity"}
    ]}
  ]
}
